Among the test systems are HCT-15 colon; SK-MEL-28 melanoma; SW-620 colon; ACHN renal; LOX IMVI melanoma; NCI/ADR-RES ovarian; OVCAR-5 ovarian; BT-549 breast; U251 CNS; SK-MEL-5 melanoma; TK-10 renal; SR leukemia; SK-OV-3 ovarian.
What all share (assay): DTP human tumour cell line panel, 48 h

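Cultured in 96-well plates, cells were exposed to test compound for 48 hours across five concentrations. Definition used: TGI = concentration required for complete inhibition of growth.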

By TGI is commonly meant the concentration at which net growth stops. Higher therefore signals lower sensitivity of the cells. Regarding `COc1cc(/C=C2\N=C(c3ccccc3)N(/N=C/c3cc4cc(C)ccc4nc3Cl)C2=O)ccc1O`, the TGI in the assay with HCT-15 colon, in the assay on SK-MEL-28 melanoma, in the assay with SW-620 colon, with ACHN renal, in the assay on LOX IMVI melanoma and in the assay with NCI/ADR-RES ovarian was greater than 100 µM each time. In addition, the TGI is greater than 100 µM with OVCAR-5 ovarian; greater than 100 µM in the assay on BT-549 breast; greater than 100 µM in the assay on U251 CNS; greater than 100 µM in the assay on SK-MEL-5 melanoma; greater than 100 µM in the assay on TK-10 renal; 47.1 µM in the assay with SR leukemia. This compound also came in with a TGI with SK-OV-3 ovarian greater than 100 µM.

With `c1ccc2c(-c3ccnc(-c4c[nH]c5ccccc45)n3)c[nH]c2c1`, the TGI with HCT-15 colon is greater than 100 µM; in the assay with SK-MEL-28 melanoma, greater than 100 µM; in the assay on SW-620 colon, 25.9 µM; in the assay with ACHN renal it was greater than 100 µM; in the assay on LOX IMVI melanoma, 10.1 µM; in the assay on NCI/ADR-RES ovarian, greater than 100 µM. Moreover, the TGI in the assay with OVCAR-5 ovarian is greater than 100 µM; with BT-549 breast, greater than 100 µM; with U251 CNS, 14.2 µM; in the assay with SK-MEL-5 melanoma, 15 µM; in the assay with TK-10 renal, greater than 100 µM; in the assay on SR leukemia it was 19.4 µM. In the assay on SK-OV-3 ovarian, the TGI is greater than 100 µM.

With `CCOP(=O)(OCC)OC1CC(n2cnc3c(N(CC)CC)ncnc32)OC1CO[Si](C)(C)C(C)(C)C` (stereo not given), the TGI was found to be 45 µM with HCT-15 colon; 36.3 µM with SK-MEL-28 melanoma; 35.2 µM with SW-620 colon; 28.8 µM with ACHN renal; 33.4 µM in the assay on LOX IMVI melanoma; 51.8 µM with NCI/ADR-RES ovarian. Besides, the TGI in the assay on OVCAR-5 ovarian was 37.1 µM; in the assay on BT-549 breast, 29.7 µM; in the assay with U251 CNS, 28.7 µM; in the assay on SK-MEL-5 melanoma, 31.4 µM; in the assay with TK-10 renal it was 33 µM; in the assay with SR leukemia, greater than 100 µM. For the same compound, in the assay with SK-OV-3 ovarian, the TGI came to 31.6 µM.

With `CCOC(=O)/C(C#N)=N\Nc1ccc(-n2c(C)nc3ccc(Br)cc3c2=O)cc1`, the TGI in the assay on HCT-15 colon, in the assay with SK-MEL-28 melanoma, with SW-620 colon, in the assay on ACHN renal, in the assay with LOX IMVI melanoma and with NCI/ADR-RES ovarian was greater than 100 µM in each case. For the same compound, the TGI in the assay on OVCAR-5 ovarian, in the assay on BT-549 breast, in the assay with U251 CNS, in the assay with SK-MEL-5 melanoma, in the assay on TK-10 renal and in the assay with SR leukemia was greater than 100 µM in each case. In addition, the TGI with SK-OV-3 ovarian was greater than 100 µM.

Turning to `C[N+](C)(C)C(Cc1c[nH]c(=S)[nH]1)C(=O)O` (stereo not given), the TGI in the assay with HCT-15 colon, in the assay with SK-MEL-28 melanoma, in the assay on SW-620 colon, in the assay with ACHN renal, with LOX IMVI melanoma and in the assay on NCI/ADR-RES ovarian was greater than 100 µM in each case. Moreover, the TGI in the assay on OVCAR-5 ovarian, in the assay on BT-549 breast, with U251 CNS, in the assay with SK-MEL-5 melanoma, in the assay on TK-10 renal and with SR leukemia was greater than 100 µM in each case. The same compound registered a TGI in the assay with SK-OV-3 ovarian greater than 100 µM.

`O=C1NC(c2ccccc2)C1N(Cc1ccccc1)Cc1ccccc1` (stereo not given): the TGI with HCT-15 colon, in the assay on SK-MEL-28 melanoma, in the assay on SW-620 colon, in the assay with ACHN renal, with LOX IMVI melanoma and in the assay on NCI/ADR-RES ovarian was greater than 100 µM in each case. In addition, the TGI with OVCAR-5 ovarian, in the assay with BT-549 breast, in the assay on U251 CNS, with SK-MEL-5 melanoma, in the assay with TK-10 renal and in the assay with SR leukemia was greater than 100 µM in each case. Also, the TGI in the assay on SK-OV-3 ovarian was greater than 100 µM.

Take `CCOC(=O)c1c(C)n(-c2ccc(C)cc2)c2c1cc(O)c1[nH]c3c(c12)CCCC3`: the concentration for total growth inhibition (TGI) in the assay with HCT-15 colon was greater than 100 µM; in the assay on SK-MEL-28 melanoma, 33.1 µM; in the assay on SW-620 colon, 39 µM; in the assay with ACHN renal, greater than 100 µM; with LOX IMVI melanoma, 30.2 µM; in the assay on NCI/ADR-RES ovarian, greater than 100 µM. The concentration for total growth inhibition (TGI) in the assay on OVCAR-5 ovarian was greater than 100 µM; with BT-549 breast, 26.2 µM; in the assay on U251 CNS it was 34.8 µM; in the assay on SK-MEL-5 melanoma, 24.3 µM; in the assay with TK-10 renal, 77.8 µM; with SR leukemia it was 11.5 µM. In the assay on SK-OV-3 ovarian, the TGI is greater than 100 µM.

Regarding `CCOC(=O)C(NC(=O)Nc1ccccc1F)(OC)C(F)(F)F` (stereo not given), the TGI in the assay on HCT-15 colon, in the assay on SK-MEL-28 melanoma, in the assay on SW-620 colon, in the assay on ACHN renal, in the assay on LOX IMVI melanoma and with NCI/ADR-RES ovarian was greater than 100 µM throughout. Further, the TGI in the assay on OVCAR-5 ovarian, in the assay on BT-549 breast, with U251 CNS, in the assay on SK-MEL-5 melanoma, in the assay on TK-10 renal and in the assay on SR leukemia was greater than 100 µM each time. Further, in the assay on SK-OV-3 ovarian, the TGI was greater than 100 µM.

With `COc1cc([C@@H]2c3cc4c(cc3[C@@H](N=Cc3ccc(C(=O)O[C@H]5C[C@H]6OC[C@@]6(OC(C)=O)[C@H]6[C@H](OC(=O)c7ccccc7)[C@]7(O)C[C@H](OC(=O)[C@H](OC(=O)c8ccc(C=N[C@@H]9c%10cc%11c(cc%10[C@@H](c%10cc(OC)c(O)c(OC)c%10)[C@H]%10C(=O)OC[C@@H]%109)OCO%11)cc8)[C@@H](NC(=O)c8ccccc8)c8ccccc8)C(C)=C([C@@H](OC(C)=O)C(=O)[C@]56C)C7(C)C)cc3)C3COC(=O)C32)OCO4)cc(C)c1O` (stereo not given in full), the TGI with HCT-15 colon, with SK-MEL-28 melanoma, with SW-620 colon, in the assay with ACHN renal, in the assay on LOX IMVI melanoma and with NCI/ADR-RES ovarian was greater than 50 µM each time. In addition, the total growth inhibition concentration (TGI) was greater than 23.6 µM in the assay with OVCAR-5 ovarian; greater than 50 µM in the assay with BT-549 breast; greater than 31.6 µM with U251 CNS; greater than 50 µM in the assay on SK-MEL-5 melanoma; greater than 50 µM with TK-10 renal; greater than 50 µM with SR leukemia. The TGI in the assay on SK-OV-3 ovarian is greater than 39.3 µM.

For `COC(=O)C(NC(=O)C12CCC(C)(C(=O)O1)C2(C)C)c1cc(C(C)(C)C)c(O)c(C(C)(C)C)c1` (stereo not given), the TGI in the assay with HCT-15 colon, with SK-MEL-28 melanoma, in the assay with SW-620 colon, with ACHN renal, in the assay on LOX IMVI melanoma and with NCI/ADR-RES ovarian was greater than 100 µM in each case. Besides, the TGI with OVCAR-5 ovarian, in the assay with BT-549 breast, in the assay with U251 CNS, in the assay on SK-MEL-5 melanoma, in the assay on TK-10 renal and in the assay with SR leukemia was greater than 100 µM throughout. In the assay with SK-OV-3 ovarian, this compound showed a total growth inhibition concentration (TGI) greater than 100 µM.

The values are drawn from PubChem BioAssay (NCI).
